Reference: patent publication US20260028596A1, “METHOD FOR PRODUCING HIGH YIELD AND HIGH QUALITY RECOMBINANT ADENO-[…]” (Aavatar Therapeutics Co.,Ltd., priority 2022, published 2026)

Assays:
[1] = test system: Host cells capable of producing recombinant adeno-associated virus of the AAV9 serotype (Expi293F cells); experiment: Osmotic shock process: viral genomes (vg) recovered from media of rAAV-producing host cells; format: cell-based; conditions: 0.5 M salt as osmotic shock reagent, added 4 days after transfection, 3 hours; vs negative control NT (FIG. 2)
Experimental: (§1) Expi293F cells (Cat #A14527, Thermo) were grown in Expi293 Expression Medium (Cat #A14351-02, Thermo) supplemented with 1% penicillin-streptomycin (Cat #15140122, Thermo). Then, the cells were maintained under serum-free suspension culture conditions. Herein, the serum-free suspension culture conditions were as follows: 120 rpm stirring rate in a shaker incubator (Cat #NB-206CL, N-biotek, South Korea); 37° C.; 8% CO2; and 85% relative humidity.
(§2) Expi293F cells were seeded in Expi293F expression media at a density of 2.5×10^6 cells per 1 mL and cultured for 3 hours. Then, the cells were transfected using 25-kDa linear PEI (Cat #23966-1, Polyscience, USA) along with the three plasmids (pHelper[Cat #112867, Addgene], pRC9n[Cat #112865, Addgene], and pAAV[Cat #105530, Addgene]), respectively. Specifically, the plasmids were mixed in DMEM (Cat #10569010, Thermo) at 1/10 the volume of cells to be transfected. Next, PEI was added to DNAs diluted in DMEM. After an additionally 20-minute culture, a DNA-PEI complex was added to the cells.
The following experiment was conducted to determine a yield improvement effect of the recombinant adeno-associated virus production process including the osmotic shock process depending on osmotic shock conditions:
Host cells capable of producing recombinant adeno-associated virus of the AAV9 serotype were prepared according to Experimental Examples 1.1 to 1.3.
For each experimental group, 2.5×10^6 cells per mL were seeded in a 30 mL culture vessel, and experiments were conducted using a total of 16 culture vessels for each experimental group.
On the basis of the time of transfection of the recombinant adeno-associated virus expression plasmid into the host cells, an osmotic shock reagent was added 4 days later, the condition was maintained for 3 hours, sample media and/or cells were harvested, and the viral genome was (vg) counts were measured.

[2] = test system: Host cells capable of producing a recombinant adeno-associated virus of a AAV9 serotype (Expi293F cells); experiment: Pre-culture treatment process: rAAV yield (total vg) of host cells; format: cell-based; conditions: pre-culture agent with PEI (1 mg/ml), Nocodazole 4 uM and/or M344 2.5 uM, 4 hours after transfection; osmotic shock after 4 days (FIG. 3)
Experimental: as §1, §2
The following experiment was conducted to determine a yield improvement effect of the recombinant adeno-associated virus production process including the pre-culture treatment process depending on pre-culture treatment conditions: […]

| SMILES | number of viral genomes recovered from the media, by salt type [1] | yield of recombinant adeno-associated virus in the host cells [2] |
| --- | --- | --- |
| [Cl-].[K+] [KCl, potassium chloride] | significant increase in the number of viral genomes recovered from the media | – |
| CN(C)c1ccc(C(=O)NCCCCCCC(=O)NO)cc1 [M344] | – | yield of recombinant adeno-associated virus in the host cells was increased |
| [Cl-].[Cl-].[Mg+2] [MgCl2, magnesium chloride] | significant increase in the number of viral genomes recovered from the media | – |
| [Cl-].[Na+] [NaCl, sodium chloride] | significant increase in the number of viral genomes recovered from the media | – |
| COC(=O)Nc1nc2ccc(C(=O)c3cccs3)cc2[nH]1 [Nocodazole] | – | yield of recombinant adeno-associated virus in the host cells was increased |
